# Reference: US8394773B2, “Use of an alkyl glycoside or of a mixture of alkyl glycosides having anti-ageing and/or calming properties as active agents in cosmetic compositions, and methods of cosmetic care using said compositions” (LVMH Recherche, priority 2008, dated 2013)
# Legend:
# Il-8 = test: Quantification of the release of Il-8 into culture supernatants of HaCaT keratinocytes stimulated with Il-1 beta (ELISA, related to total proteins); type: cell-based, human; details: for Inhibitory activity (%) (release of Il-8) / Liberation Il-8 (%) / pg IL8/mg prot: alkyl glycoside alone at 1 μM, 24 hours; for Inhibitory activity (%) (release of Il-8) / Liberation Il-8 (%): HaCaT + Il-1 beta; for Liberation Il-8 (%): control (-) = 100; for pg IL8/mg prot: HaCaT stimulated with Il-1 beta 25 ng/ml; for anti-Il-8 activity, in words: compounds tested alone, 1 μM
# Protocol: (§1) The release of the Il-8 and PGE2 markers into cell line culture supernatants of immortalized keratinocytes (HaCaT), stimulated for 24 hours in the presence of oligosaccharides is quantified.
# (§2) HaCaTs are cultured to 80% confluence.
# (§3) A treatment is carried out over 24 hours with the product to be evaluated with, in the case of Il-8 alone, a parallel stimulation with interleukin-1.
# (§4) The culture supernatants containing the markers are collected and stored at −20° C. up to the day of the assay.
# (§5) The assay is carried out with the aid of a kit specific for each of the markers.
# The assay of human Il-8 by means of the ELISA AbC204/3 kit (Abcys).
# (§6) These HaCaTs are inoculated at the rate of 10 000 cells/well (supplemented KSFM culture medium, Gibco) in a 96-well microplate.
# (§7) The plate is placed in an incubator (37° C. and 5% CO2) for 24 hours.
# (§8) The oligosaccharides, initially in the form of a 1 mM stock solution in DMSO, are exposed to the cells after suitable dilution in culture medium.
# In parallel, for Il-8, the cells are stimulated with Il-1 beta at 25 ng/ml.
# A column is treated with cholecalciferol (vitamin D3) at 0.39 μg/ml and stimulated with Il-1 beta, as positive control inhibiting the release of Il-8.
# A control column is not treated and stimulated with Il-1 beta.
# (§9) Each concentration of product, the positive control and the control without treatment, are evaluated on 4 or 6 wells of HaCaT.
# (§10) After 24 hours of treatment, the culture supernatants are collected and stored at −20° C.
# (§11) The assay is carried out according to the protocol described in each of the kits, by an immunoenzymatic test which makes it possible to assay, by spectrophotometric measurement at 450 nm, the respective quantities of Il-8 and of PGE2 present in the supernatants.
# (§12) The absorbance (OD) values obtained for the 2-fold dilution series for IL-8 standard and PGE2 standard (7 concentrations, in duplicate) are plotted on a logarithmic graph.
# (§13) The known concentrations of IL-8 and PGE2, expressed in pg/ml, are plotted on the x-axis and the absorbance values on the y-axis, in order to obtain a straight line.
# (§14) The absorbance values measured for each sample are in turn plotted on the graph, in order to determine the respective IL-8 and PGE2 concentrations, expressed in pg/ml.
# (§15) The assay (in mg/ml) of the total proteins present in the cellular pellets, after treatment or non-treatment of the HaCaTs, makes it possible to relate the assay of IL-8 and of PGE2 to the quantity of proteins in each well of cells, expressed in picograms (pg) of markers per milligram (mg) of proteins.
# (§16) The absorbance values for the 6 wells are converted to mg of proteins per well of HaCaT by means of the straight line obtained by the calibration series (quantity of proteins known for an absorbance determined at 570 nm).
# (§17) Finally, for each well and each treatment condition, a quantitative assay of the release of Il-8 and of PGE2 is obtained, in pg/ml.
# This assay is related to a quantity of proteins, expressed in mg/ml. The final quantitative result for Il-8 is therefore expressed in pg/mg of proteins.
# The percentage inhibition of the production of IL-8 is calculated as follows: […]
# The test is carried out at a concentration of alkyl glycosides equal to 1 μM, after dilution in the culture medium, the negative control is pure DMSO.
# PGE2 = test: Quantification of the release of PGE2 into culture supernatants of HaCaT keratinocytes (immunoenzymatic kit, related to total proteins); type: cell-based; details: for Inhibitory activity (%) (release of PGE2) / pg PGE2/mg prot / Liberation PGE2 (%): alkyl glycoside alone at 1 μM, 24 hours, HaCaT; for Liberation PGE2 (%): control (-) = 100
# Protocol: PGE2 is an important marker of inflammatory response linked to tissue damage. It is produced by a wide variety of cells including monocytes, macrophages or keratinocytes.
# as §1, §2, §3, §4, §5
# Assay of PGE2 by means of the Parameter PGE2 kit (R&D system).
# as §6, §7, §8
# A column is treated with indomethacin as positive control inhibiting the release of PGE2.
# as §9, §10, §11, §12, §13, §14, §15, §16, §17
# The test is carried out at a concentration of alkyl glycosides equal to 1 μM, after dilution in the culture medium.
SMILES,Inhibitory activity (%) (release of Il-8) (Il-8),Liberation Il-8 (%) (Il-8),pg IL8/mg prot (Il-8) [pg/mg prot],Inhibitory activity (%) (release of PGE2) (PGE2),pg PGE2/mg prot (PGE2) [pg/mg prot],Liberation PGE2 (%) (PGE2),"anti-Il-8 activity, in words (Il-8)","anti-Il-8 activity, in words (Il-8; listed as dodecyl maltotrioside)","PGE2 inhibiting activity, in words (PGE2; compounds tested alone, 1 μM)"
"CCCCCCCCCCCCO[C@@H]1O[C@H](CO)[C@@H](O)[C@H](O)[C@H]1O [DP1-12, n-dodecyl-beta-D-glucopyranoside, reference compound]",24.6,75.4,930.3,52.2,150.0,47.8,,,
"CO[C@@H]1O[C@H](CO)[C@@H](O[C@H]2O[C@H](CO)[C@@H](O)[C@H](O)[C@H]2O)[C@H](O)[C@H]1O [DP2-1, methyl beta-D-maltoside]",59.6,40.4,497.7,58.2,131.3,41.8,,,
"CCCCCCCCO[C@@H]1O[C@H](CO)[C@@H](O)[C@H](O)[C@H]1O [DP1-8, n-Octyl-beta-D-glucopyranoside, reference compound]",9.1,91.0,1121.6,0.3,312.8,99.7,,,
"CCCCCCCCO[C@@H]1O[C@H](CO)[C@@H](O[C@H]2O[C@H](CO)[C@@H](O)[C@H](O)[C@H]2O)[C@H](O)[C@H]1O [DP2-8, octyl beta-D-maltoside]",69.4,30.6,377.7,37.7,195.5,62.3,,,
"CCCCCCCCCCCCO[C@@H]1O[C@H](CO)[C@@H](O[C@H]2O[C@H](CO)[C@@H](O[C@H]3O[C@H](CO)[C@@H](O)[C@H](O)[C@H]3O)[C@H](O)[C@H]2O)[C@H](O)[C@H]1O [DP3-12, dodecyl beta-D-maltotrioside]",20.1,79.9,521.5,18.8,171.8,81.2,acts on both markers,very small effect on the release of Il-8,acts on both markers
"CO[C@@H]1O[C@H](CO)[C@@H](O[C@H]2O[C@H](CO)[C@@H](O[C@H]3O[C@H](CO)[C@@H](O)[C@H](O)[C@H]3O)[C@H](O)[C@H]2O)[C@H](O)[C@H]1O [DP3-1, methyl beta-D-maltotrioside]",71.9,28.1,346.6,49.1,159.6,50.9,,,
"CCCCCCCCCCCCO[C@@H]1O[C@H](CO)[C@@H](O[C@H]2O[C@H](CO)[C@@H](O)[C@H](O)[C@H]2O)[C@H](O)[C@H]1O [DP2-12, dodecyl beta-D-maltoside]",82.9,17.1,211.0,49.1,159.8,50.9,,,
